{
  "source": "patent US20100267561A1",
  "about": "“HERBICIDAL PYRIDAZINONE DERIVATIVES” (priority 2007, published 2010)",
  "format_in_all_cases": "in vivo",
  "key": {"rice (Oryza sativa)": {"test_system": "rice (Oryza sativa)", "assay": "Test B flooded paddy test plant response", "method_in_brief": "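2-leaf plants; pots flooded 3 cm above soil; compound added to paddy water; depth maintained. Greenhouse 13–15 d. Visual rating vs controls, 0 (no effect) to 100 (complete control); dash = no result.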"}, "kochia (Kochia scoparia)": {"test_system": "kochia (Kochia scoparia)", "assay": "Test B pre-/postemergence plant response", "conditions": "for Kochia plant response rating: postemergence, 0-100 scale; for Plant response rating, Kochia: Postemergence", "method_in_brief": "(§1)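 Visual scoring from 0 (no effect) to 100 (complete control) against untreated controls was done 13 to 15 days after greenhouse treatment. Chemicals were formulated in a surfactant-containing non-phytotoxic solvent and applied to soil preemergence or to 1- to 4-leaf (2-18 cm) plants postemergence.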"}, "[1]": {"test_system": "morningglory (Ipomoea coccinea)", "assay": "Test B pre-/postemergence plant response", "conditions": "for Morningglory plant response rating: postemergence, 0-100 scale; for Plant response rating, Morningglory: Postemergence", "method_in_brief": "as §1"}, "[2]": {"test_system": "johnsongrass (Sorghum halepense)", "assay": "Test B pre-/postemergence plant response", "conditions": "for Johnsongrass plant response rating: postemergence, 0-100 scale; for Plant response rating, Johnsongrass: Postemergence", "method_in_brief": "as §1"}, "[3]": {"test_system": "giant foxtail (Setaria faberii)", "assay": "Test B pre-/postemergence plant response", "conditions": "for Plant response rating, Foxtail, Giant: Postemergence", "method_in_brief": "as §1"}, "[4]": {"test_system": "velvetleaf (Abutilon theophrasti)", "assay": "Test B pre-/postemergence plant response", "conditions": "for Velvetleaf plant response rating: postemergence, 0-100 scale; for Plant response rating, Velvetleaf: Postemergence", "method_in_brief": "as §1"}, "[5]": {"test_system": "bermudagrass (Cynodon dactylon)", "assay": "Test B pre-/postemergence plant response", "conditions": "for Plant response rating, Bermudagrass: Postemergence", "method_in_brief": "as §1"}, "[6]": {"test_system": "Italian ryegrass (Lolium multiflorum)", "assay": "Test B pre-/postemergence plant response", "conditions": "for Ryegrass, Italian plant response rating: postemergence, 0-100 scale; for Plant response rating, Ryegrass, Italian: Postemergence", "method_in_brief": "as §1"}, "[7]": {"test_system": "goosegrass (Eleusine indica)", "assay": "Test B pre-/postemergence plant response", "conditions": "for Goosegrass plant response rating: postemergence, 0-100 scale; for Plant response rating, Goosegrass: Postemergence", "method_in_brief": "as §1"}, "[8]": {"test_system": "large crabgrass (Digitaria sanguinalis)", "assay": "Test B pre-/postemergence plant response", "conditions": "for Plant response rating, Crabgrass, Large: Postemergence", "method_in_brief": "as §1"}, "[9]": {"test_system": "lambsquarters (Chenopodium album)", "assay": "Test B pre-/postemergence plant response", "conditions": "for Lambsquarters plant response rating: postemergence, 0-100 scale; for Plant response rating, Lambsquarters: Postemergence", "method_in_brief": "as §1"}, "soybean (Glycine max)": {"test_system": "soybean (Glycine max)", "assay": "Test B pre-/postemergence plant response", "conditions": "for Soybean plant response rating: postemergence, 0-100 scale; for Plant response rating, Soybean: Postemergence", "method_in_brief": "as §1"}, "[10]": {"test_system": "pigweed (Amaranthus retroflexus)", "assay": "Test B pre-/postemergence plant response", "conditions": "for Pigweed plant response rating: postemergence, 0-100 scale; for Plant response rating, Pigweed: Postemergence", "method_in_brief": "as §1"}, "[11]": {"conditions": "62 g ai/ha, scale 0 to 100, 0 no effect, 100 complete control"}, "[12]": {"conditions": "8 g ai/ha, postemergence, 0-100 scale"}},
  "data": [
    {"molecule": "CCc1cc(-c2ccc(Br)cc2)nn1-c1c(O)cnn(CC(F)(F)F)c1=O", "note": "[Compound 73]", "values": [
      {"measurement": "Plant response rating, Rice", "setting": "rice (Oryza sativa); Flood (flooded paddy test), 62 g ai/ha, scale 0 to 100, 0 no effect, 100 complete control", "value": 0},
      {"measurement": "Plant response rating, Rice", "setting": "rice (Oryza sativa); Flood (flooded paddy test), 125 g ai/ha, scale 0 to 100, 0 no effect, 100 complete control", "value": 0},
      {"measurement": "Plant response rating, Rice", "setting": "rice (Oryza sativa); Flood (flooded paddy test), 250 g ai/ha, scale 0 to 100, 0 no effect, 100 complete control", "value": 0},
      {"measurement": "Plant response rating, Rice", "setting": "rice (Oryza sativa); Flood, 31 g ai/ha, scale 0 to 100", "value": 0},
      {"measurement": "Kochia plant response rating", "setting": "kochia (Kochia scoparia); 8 g ai/ha", "value": 0},
      {"measurement": "Kochia plant response rating", "setting": "kochia (Kochia scoparia); 16 g ai/ha", "value": 0},
      {"measurement": "Plant response rating, Kochia", "setting": "kochia (Kochia scoparia); 31 g ai/ha, scale 0 to 100", "value": 0},
      {"measurement": "Plant response rating, Kochia", "setting": "kochia (Kochia scoparia); [11]", "value": 0},
      {"measurement": "Morningglory plant response rating", "setting": "[1]; 8 g ai/ha", "value": 0},
      {"measurement": "Morningglory plant response rating", "setting": "[1]; 16 g ai/ha", "value": 0},
      {"measurement": "Plant response rating, Morningglory", "setting": "[1]; 31 g ai/ha, scale 0 to 100", "value": 0},
      {"measurement": "Plant response rating, Morningglory", "setting": "[1]; [11]", "value": 0},
      {"measurement": "Johnsongrass plant response rating", "setting": "[2]; 8 g ai/ha", "value": 70},
      {"measurement": "Johnsongrass plant response rating", "setting": "[2]; 16 g ai/ha", "value": 85},
      {"measurement": "Plant response rating, Johnsongrass", "setting": "[2]; 31 g ai/ha, scale 0 to 100", "value": 90},
      {"measurement": "Plant response rating, Johnsongrass", "setting": "[2]; [11]", "value": 100},
      {"measurement": "Foxtail, Giant plant response rating", "setting": "[3]; [12]", "value": 30},
      {"measurement": "Plant response rating, Foxtail, Giant", "setting": "[3]; 16 g ai/ha, scale 0 to 100", "value": 70},
      {"measurement": "Plant response rating, Foxtail, Giant", "setting": "[3]; 31 g ai/ha, scale 0 to 100", "value": 90},
      {"measurement": "Plant response rating, Foxtail, Giant", "setting": "[3]; [11]", "value": 100},
      {"measurement": "Velvetleaf plant response rating", "setting": "[4]; 8 g ai/ha", "value": 0},
      {"measurement": "Velvetleaf plant response rating", "setting": "[4]; 16 g ai/ha", "value": 0},
      {"measurement": "Plant response rating, Velvetleaf", "setting": "[4]; 31 g ai/ha, scale 0 to 100", "value": 0},
      {"measurement": "Plant response rating, Velvetleaf", "setting": "[4]; [11]", "value": 0},
      {"measurement": "Bermudagrass plant response rating", "setting": "[5]; [12]", "value": 0},
      {"measurement": "Plant response rating, Bermudagrass", "setting": "[5]; 16 g ai/ha, scale 0 to 100", "value": 0},
      {"measurement": "Plant response rating, Bermudagrass", "setting": "[5]; 31 g ai/ha, scale 0 to 100", "value": 10},
      {"measurement": "Plant response rating, Bermudagrass", "setting": "[5]; [11]", "value": 10},
      {"measurement": "Ryegrass, Italian plant response rating", "setting": "[6]; 8 g ai/ha", "value": 45},
      {"measurement": "Ryegrass, Italian plant response rating", "setting": "[6]; 16 g ai/ha", "value": 70},
      {"measurement": "Plant response rating, Ryegrass, Italian", "setting": "[6]; 31 g ai/ha, scale 0 to 100", "value": 100},
      {"measurement": "Plant response rating, Ryegrass, Italian", "setting": "[6]; [11]", "value": 100},
      {"measurement": "Goosegrass plant response rating", "setting": "[7]; 8 g ai/ha", "value": 70},
      {"measurement": "Goosegrass plant response rating", "setting": "[7]; 16 g ai/ha", "value": 90},
      {"measurement": "Plant response rating, Goosegrass", "setting": "[7]; 31 g ai/ha, scale 0 to 100", "value": 90},
      {"measurement": "Plant response rating, Goosegrass", "setting": "[7]; [11]", "value": 90},
      {"measurement": "Crabgrass, Large plant response rating", "setting": "[8]; [12]", "value": 45},
      {"measurement": "Plant response rating, Crabgrass, Large", "setting": "[8]; 16 g ai/ha, scale 0 to 100", "value": 70},
      {"measurement": "Plant response rating, Crabgrass, Large", "setting": "[8]; 31 g ai/ha, scale 0 to 100", "value": 100},
      {"measurement": "Plant response rating, Crabgrass, Large", "setting": "[8]; [11]", "value": 100},
      {"measurement": "Lambsquarters plant response rating", "setting": "[9]; 8 g ai/ha", "value": 0},
      {"measurement": "Lambsquarters plant response rating", "setting": "[9]; 16 g ai/ha", "value": 0},
      {"measurement": "Plant response rating, Lambsquarters", "setting": "[9]; 31 g ai/ha, scale 0 to 100", "value": 0},
      {"measurement": "Plant response rating, Lambsquarters", "setting": "[9]; [11]", "value": 0},
      {"measurement": "Soybean plant response rating", "setting": "soybean (Glycine max); 8 g ai/ha", "value": 0},
      {"measurement": "Soybean plant response rating", "setting": "soybean (Glycine max); 16 g ai/ha", "value": 0},
      {"measurement": "Plant response rating, Soybean", "setting": "soybean (Glycine max); 31 g ai/ha, scale 0 to 100", "value": 10},
      {"measurement": "Plant response rating, Soybean", "setting": "soybean (Glycine max); [11]", "value": 10},
      {"measurement": "Pigweed plant response rating", "setting": "[10]; 8 g ai/ha", "value": 0},
      {"measurement": "Pigweed plant response rating", "setting": "[10]; 16 g ai/ha", "value": 0},
      {"measurement": "Plant response rating, Pigweed", "setting": "[10]; 31 g ai/ha, scale 0 to 100", "value": 0},
      {"measurement": "Plant response rating, Pigweed", "setting": "[10]; [11]", "value": 0}
    ]}
  ]
}
